The values that follow come from US10300056B2, “CGRP receptor antagonists” (Heptares Therapeutics Limited, priority 2015, dated 2019).

One data set addresses CGRP receptor (Homo sapiens (Human), UniProt O60894+Q16602). The experiment in a line: cAMP functional assay (HTRF) in SK-N-MC cells. In kind it is cell-based. Conditions: read-out: pkb average (converted). As for the experimental part:
cAMP production following receptor activation was determined using the Homogeneous Time-Resolved Fluorescence (HTRF) cAMP dynamic-2 assay (Cisbio, France). The human neuroblastoma cell line SK-N-MC endogenously expressing the human CGRP receptor was seeded at a density of 12,500 cells/well in solid walled 96 well half area plates (Costar, Catalog Number 3688, Corning Life Sciences, Germany). After 16 h incubation at 37° C. media was removed and cells were incubated at 37° C. for 30 min in serum free media containing 500 μM IBMX (Tocris, Abingdon, UK, Catalog Number 2845) and increasing concentrations of test antagonist. Following this cells were challenged with an EC80 concentration of human CGRP (0.3 nM) for a further 30 min at 37° C. and then cAMP production was determined as manufacturer's instructions before plates were read on a PheraStar fluorescence plate reader (BMG LabTech, Germany). IC50 values were derived from the inhibition curve. The pIC50 values (where pIC50=−log10 IC50) were converted to a functional pKb value using a modified Cheng-Prussoff equation where Kd=agonist EC50 and L hot=agonist challenge concentration. The pKb values of certain compounds of the invention are detailed in Table 3.

Data set [1] has as its target CGRP receptor ectodomain complex (Homo sapiens (Human), UniProt O60894+Q16602). The experiment in a line: Receptor kinetic profiling by surface plasmon resonance (Biacore T200). To be noted: SPR; for receptor dissociation (off-rate) compared with olcegepant or MK-3207: in words; for CGRP t1/2: dissociation half-life, 25° C. (In SPR one partner is held on a chip, and binding of the other changes the refractive index at the surface.)
Experimental: Kinetic analyses were run on a Biacore T200 instrument (GE Healthcare Bio-Sciences AB, Uppsala, Sweden) at 25° C. using 0.05 mM EDTA, PBS (10 mM phosphate buffer, 2.7 mM KCl, 137 mM NaCl) pH 7.4, 0.005% v/v Surfactant P20, 5% DMSO as the running buffer. […] The chip was loaded with Ni^2+ and carboxyl groups of the dextran matrix were activated by EDC/NHS. The receptor ectodomain complex (100 nM in running buffer) was then injected and immobilised via the His-tag and amino groups. Two fold dilution series of each compound (five concentrations, in the range 25-40 nM) were injected. Blank-subtracted data were fitted to a 1:1 interaction model to obtain kinetic parameters which are expressed in Table 4 as dissociation half-life (t1/2=(ln 2/off-rate (kd)/60).

For data set [2], the target named is Human CGRP receptors (consisting of CRLR and RAMP1) (Homo sapiens (Human), UniProt O60894+Q16602). The experiment in a line: Radioligand binding assay (3H-telcagepant displacement). To be noted: Sf21 membranes, 0.5 nM 3H-telcagepant, Cheng-Prussoff. On the procedure:
Human Calcitonin Receptor Like Receptor (CRLR) and human RAMP1 were cloned into Invitrogen's (ThermoFisher Scientific, UK) pFastBac dual expression vector. Transposition of CRLR/RAMP1 DNA was performed using Invitrogen's Bac-to-Bac Baculovirus Expression Systems. P0 baculovirus was generated by transfecting SF9 cells with bacmid DNA using Cellfectin® II transfection reagent (ThermoFisher Scientific, UK, catalog number 10362-100). Following P0 generation P1 virus was then generated ready for large scale infection and membrane preparation. Sf21 cells were grown in expression medium ESF921 (Expression Systems, USA, catalog number 96-001-01) supplemented with 10% heat-inactivated FBS and 1% Pen/Strep and were infected at a cell density of 2.5×10^6 cells/mL and an MOI of 2. Expression was carried out over 48 h in a shaking incubator set at 27° C. The cell culture was centrifuged at 2,500 rcf for 10 min at 4° C. The pellets were resuspended in cold PBS supplemented with Roche's Complete EDTA-free protease inhibitor cocktail tablets (Roche Applied Sciences, catalog number 05056489001), 1 mM PMSF and 1 mM EDTA. The resuspended cell paste was then centrifuged at 3,273 rcf for 12 min at 4° C. The supernatant was discarded and the pellet frozen at −80° C. The cell pellet from a 4 L culture was resuspended in buffer containing 50 mM Hepes pH 7.5, 150 mM NaCl, 8 Roche EDTA-free protease inhibitor cocktail tablets and 1 mM PMSF. The suspension was left stirring at rt for 1 h and then homogenised for 90 s at 9,500 rpm using a VDI 25 (VWR, USA) homogeniser. The cells were then lysed using a Microfluidizer processor M-110L Pneumatic (Microfluidics, USA). After lysis, the mixture was homogenised for 90 s at 9,500 rpm and then centrifuged at 335 rcf for 10 min. The supernatant was then further ultra-centrifuged at 42,000 rpm for 90 min. After ultra-centrifugation, the supernatant was discarded and the pellet was resuspended in 50 mL (25 mL for each 2 L culture) of buffer containing 50 mM Hepes pH 7.5, 150 mM NaCl, 3 Roche EDTA-free protease inhibitor cocktail tablets and 1 mM PMSF. The suspension was then homogenised for 90 s at 9,500 rpm. The resulting membranes were then stored at −80° C.
Human CGRP receptors expressed (consisting of CRLR and RAMP1) in insect Sf21 cell membrane homogenates were re-suspended in the binding buffer (10 mM HEPES, pH 7.4, 5 mM MgCl2, 0.2% BSA) to a final assay concentration of 0.6 μg protein per well. Saturation isotherms were determined by the addition of various concentrations of ^3H-telcagepant (Ho et al, The Lancet, 2008, 372, 2115) (in a total reaction volume of 250 μL) for 60 min at rt. At the end of the incubation, membranes were filtered onto a unifilter, a 96-well white microplate with bonded GF/B filter pre-incubated with 0.5% PEI, with a Tomtec cell harvester and washed 5 times with distilled water. Non-specific binding (NSB) was measured in the presence of 10 nM MK-3207 hydrochloride (CAS No. 957116-20-0). Radioactivity on the filter was counted (1 min) on a microbeta counter after addition of 50 μL of scintillation fluid. For inhibition experiments, membranes were incubated with 0.5 nM ^3H-telcagepant and 10 concentrations of the inhibitory compound (0.001-10 μM). IC50 values were derived from the inhibition curve and the affinity constant (Ki) values were calculated using the Cheng-Prussoff equation (Cheng et al, Biochem. Pharmacol. 1973, 22, 3099-3108).

A short description of data set [3]: Thermodynamic solubility profiling. To be noted: aqueous buffer, thermodynamic from solid. In kind it is physicochemical. On the procedure: A 50 mM DMSO stock solution of test compound was prepared, and from this, a working solution of 1 mM was prepared by dilution with DMSO. The UV absorbance of working solution was scanned from 220 nm to 1000 nm to identify the wavelength maxima of test compound. The 1 mM working solution was then serially diluted in DMSO to different concentrations to determine linearity/calibration curve. […] The resulting solution was then kept on a RotoSpin shaker at 50 rpm for 24 h at rt before the solution was filtered using 0.45 micron PVDF injector filters in order to remove the insoluble fraction of the compound. Subsequently, 150 uL of the filtrate is taken for quantification using a UV spectrophotometer, acquiring the optical density of standard solutions and test compound at the same wavelength maxima. From the optical density of test compound the thermodynamic solubility is calculated using the linearity/calibration curve and expressed as micromolar (μM). Solubility profiles of certain compounds of the invention are detailed in Table 7.

Molecules are shown by their SMILES. Converted amounts (≈) assume the structure as drawn. Where a name gives a salt, the structure may show the parent alone. Read-outs that look alike come from different tables or passages of the source.

In general, thermodynamic solubility refers to solubility found after equilibrating the solid with the medium.

Sequence of CGRP receptor ectodomain complex (Q16602 23-139): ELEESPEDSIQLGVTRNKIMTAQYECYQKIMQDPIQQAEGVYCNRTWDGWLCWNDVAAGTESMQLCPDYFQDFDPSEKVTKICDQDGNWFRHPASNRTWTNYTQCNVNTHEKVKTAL
Sequence of CGRP receptor ectodomain complex (O60894 27-118): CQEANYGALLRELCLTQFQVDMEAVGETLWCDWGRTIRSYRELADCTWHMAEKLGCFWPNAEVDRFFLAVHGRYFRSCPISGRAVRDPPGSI
Sequence of Human CGRP receptors (consisting of CRLR and RAMP1) (Q16602 23-461): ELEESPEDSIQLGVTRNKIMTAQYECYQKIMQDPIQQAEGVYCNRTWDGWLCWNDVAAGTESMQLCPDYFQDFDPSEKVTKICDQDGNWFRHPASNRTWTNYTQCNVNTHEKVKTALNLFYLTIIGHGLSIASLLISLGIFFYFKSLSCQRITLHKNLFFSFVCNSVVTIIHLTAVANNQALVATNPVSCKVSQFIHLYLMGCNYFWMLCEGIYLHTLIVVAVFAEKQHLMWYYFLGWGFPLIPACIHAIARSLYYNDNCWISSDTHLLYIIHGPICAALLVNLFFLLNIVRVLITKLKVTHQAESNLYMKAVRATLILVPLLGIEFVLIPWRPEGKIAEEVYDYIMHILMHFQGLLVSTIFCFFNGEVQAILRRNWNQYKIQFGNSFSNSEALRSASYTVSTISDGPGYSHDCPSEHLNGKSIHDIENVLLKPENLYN
Sequence of Human CGRP receptors (consisting of CRLR and RAMP1) (O60894 27-148): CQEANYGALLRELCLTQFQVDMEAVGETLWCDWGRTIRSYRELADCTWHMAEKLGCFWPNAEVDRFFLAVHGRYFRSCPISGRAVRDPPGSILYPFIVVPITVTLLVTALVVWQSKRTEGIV
Sequence of CGRP receptor (Q16602 23-461): as the sequence (Q16602 23-461) above
Sequence of CGRP receptor (O60894 27-148): as the sequence (O60894 27-148) above

Turning to `Cc1cc(C[C@@H](NC(=O)N2CCC(c3cc4ccccc4[nH]c3=O)CC2)C(=O)N[C@@H](CC2CCN(C(=O)OC(C)(C)C)CC2)C(=O)N2CCN(c3ccncc3)CC2)cc2cn[nH]c12` [Example 2, tert-butyl 4-{(2S)-2-{[(2R)-3-(7-methyl-1H-indazol-5-yl)-2-({[4-(2-oxo-1,2-dihydroquinolin-3-yl)piperidin-1-yl]carbonyl}amino)propanoyl]amino}-3-oxo-3-[4-(pyridin-4-yl)piperazin-1-yl]propyl}piperidine-1-carboxylate], the Kb at CGRP receptor is 0.2 nM. For the same molecule, in data set [1], the “receptor dissociation (off-rate) compared with olcegepant or MK-3207” value was “slow receptor dissociation” and the “CGRP t1/2” value worked out at 78 min. In data set [2], this molecule had a pKi average of 10.0.

For `CCCN1CCC(C[C@H](NC(=O)[C@@H](Cc2cc(C)c3[nH]ncc3c2)NC(=O)N2CCC(c3cc4ccccc4[nH]c3=O)CC2)C(=O)N2CCN(c3ccncc3)CC2)CC1` [Example 4, N-[(2R)-3-(7-methyl-1H-indazol-5-yl)-1-oxo-1-({(2S)-1-oxo-3-(1-propylpiperidin-4-yl)-1-[4-(pyridin-4-yl)piperazin-1-yl]propan-2-yl}amino)propan-2-yl]-4-(2-oxo-1,2-dihydroquinolin-3-yl)piperidine-1-carboxamide], the Kb on CGRP receptor was 0.02 nM. Also, in data set [1], the “receptor dissociation (off-rate) compared with olcegepant or MK-3207” value was “slow receptor dissociation” and the “CGRP t1/2” value was 39 min. The same molecule displayed a pKi average in data set [2] of 10.4.

Take `CCCCC(=O)N1CCC(C[C@H](NC(=O)[C@@H](Cc2cc(C)c3[nH]ncc3c2)NC(=O)N2CCC(c3cc4ccccc4[nH]c3=O)CC2)C(=O)N2CCN(c3ccncc3)CC2)CC1` [Example 6, N-[(2R)-3-(7-methyl-1H-indazol-5-yl)-1-oxo-1-({(2S)-1-oxo-3-(1-pentanoylpiperidin-4-yl)-1-[4-(pyridin-4-yl)piperazin-1-yl]propan-2-yl}amino)propan-2-yl]-4-(2-oxo-1,2-dihydroquinolin-3-yl)piperidine-1-carboxamide]: the Kb on CGRP receptor was 0.1 nM. In data set [1], the “receptor dissociation (off-rate) compared with olcegepant or MK-3207” value is “slow receptor dissociation” and the “CGRP t1/2” value amounted to 20 min. Moreover, in data set [2], the pKi average came out at 10.0.

Take `Cc1cc(C[C@@H](NC(=O)N2CCC(n3c(=O)[nH]c4ncccc43)CC2)C(=O)N[C@@H](CC2CCN(CCN(C)C)CC2)C(=O)N2CCN(c3ccncc3)CC2)cc2cn[nH]c12` [Example 12, N-[(2R)-1-({(2S)-3-{1-[2-(dimethylamino)ethyl]piperidin-4-yl}-1-oxo-1-[4-(pyridin-4-yl)piperazin-1-yl]propan-2-yl}amino)-3-(7-methyl-1H-indazol-5-yl)-1-oxopropan-2-yl]-4-(2-oxo-2,3-dihydro-1H-imidazo[4,5-b]pyridin-1-yl)piperidine-1-carboxamide]: the thermodynamic solubility at 24 h in data set [3] (PBS buffer pH 7.4, 24 h at rt, read-out: Thermodynamic solubility pH 7.4) turned out to be 1960 µM (≈ 1630 µg/mL); in data set [3] (Sodium Phosphate Buffer pH 6.0, 24 h at rt, read-out: Thermodynamic solubility pH 6), 1650 µM (≈ 1370 µg/mL). The Kb on CGRP receptor is 0.0251 nM. Further, in data set [1], the “CGRP t1/2” value came out at 101 min.

`Cc1cc(C[C@@H](NC(=O)N2CCC(n3c(=O)[nH]c4ncccc43)CC2)C(=O)N[C@@H](CC2CCN(C(=O)CC(=O)O)CC2)C(=O)N2CCN(c3ccncc3)CC2)cc2cn[nH]c12` [Example 13, 3-(4-{(2S)-2-{[(2R)-3-(7-methyl-1H-indazol-5-yl)-2-({[4-(2-oxo-2,3-dihydro-1H-imidazo[4,5-b]pyridin-1-yl)piperidin-1-yl]carbonyl}amino)propanoyl]amino}-3-oxo-3-[4-(pyridin-4-yl)piperazin-1-yl]propyl}piperidin-1-yl)-3-oxopropanoic Acid, ammonium Salt]: the Kb at CGRP receptor is 0.126 nM. The pKi average in data set [2] came out at 10.0.
